The CheMixHub ionic liquid set
Where “and” joins values, the source holds several entries; their conditions need not be identical. Equal entries are not always repeated.

Assay: xn = mol fraction of the nth substance listed

C[N+](C)(C)Cc1ccccc1.[Cl-] + O=C([O-])C1=NN(c2ccc(S(=O)(=O)[O-])cc2)C(=O)C1N=Nc1ccc(S(=O)(=O)[O-])cc1.[Na+].[Na+].[Na+] + O
electrical conductivity [S/m], 101.3 kPa, frequency 0.001 MHz
Details	298.15 K	308.15 K	318.15 K
x2 = 0, x1 = 1.802e-05	0.0137	0.0183	0.0233
x2 = 0, x1 = 5.406e-05	0.0295	0.0398	0.0456
x2 = 0, x1 = 9.009e-05	0.0457	0.0565	0.0643

viscosity [mPa·s], 101.3 kPa
Details	298.15 K	308.15 K	318.15 K
x2 = 0, x1 = 1.802e-05	0.88	0.726	0.611
x2 = 0, x1 = 5.406e-05	0.897	0.747	0.627
x2 = 0, x1 = 9.009e-05	0.914	0.766	0.646

CC[n+]1ccn(C)c1.F[B-](F)(F)F + CS(C)=O
Details	electrical conductivity	viscosity [mPa·s]
293.15 K, 100 kPa, x2 = 0.4781	–	19.1
298.1 K, 100 kPa, x1 = 0.021	0.55 S/m and 0.79 S/m	–
298.1 K, 100 kPa, x1 = 0.218	1.77 S/m	–
298.1 K, 100 kPa, x1 = 0.381	1.56 S/m	–
298.1 K, 100 kPa, x1 = 0.623	1.37 S/m	–
298.15 K, 100 kPa, x2 = 0.4098	–	19.1
303.15 K, 100 kPa, x2 = 0.7866	–	4.91
303.15 K, 101 kPa, x2 = 0.2996	–	17.26
303.15 K, 101 kPa, x2 = 0.6002	–	8.52
303.15 K, 101 kPa, x2 = 0.7996	–	4.395
313.15 K, 100 kPa, x2 = 0	–	24.8
313.15 K, 100 kPa, x2 = 0.2931	–	15.4
313.15 K, 101 kPa, x2 = 0.2996	–	12.88
323.15 K, 101 kPa, x2 = 0.4	–	8.2
323.15 K, 101 kPa, x2 = 0.9002	–	1.996
333.15 K, 101 kPa, x2 = 0.9002	–	1.71
343.15 K, 100 kPa, x2 = 0	–	11.7
343.15 K, 100 kPa, x2 = 0.2931	–	7.6
343.15 K, 100 kPa, x2 = 0.8959	–	1.61
353.15 K, 100 kPa, x2 = 0.4781	–	4.48

CC[n+]1ccn(C)c1.F[B-](F)(F)F + CN(C)C=O
101 kPa
Details	viscosity [mPa·s]
303.15 K, x2 = 0.2016	16.52
313.15 K, x2 = 0	20.41
313.15 K, x2 = 0.3987	7.35
313.15 K, x2 = 0.5005	5.397
313.15 K, x2 = 0.7997	1.806
323.15 K, x2 = 0	15.35
323.15 K, x2 = 0.2994	7.73
323.15 K, x2 = 0.5005	4.475
323.15 K, x2 = 0.6004	3.226
323.15 K, x2 = 0.8999	1.01

CC[n+]1ccn(C)c1.F[B-](F)(F)F + O
298 K, 101 kPa
Details	electrical conductivity [S/m]
x2 = 0.78	8.27
x2 = 0.84	8.63

CC[n+]1ccn(C)c1.O=S(=O)([N-]S(=O)(=O)C(F)(F)F)C(F)(F)F + OCCOCCOCCOCCO
Details	viscosity [mPa·s]
298.15 K, 101 kPa, x2 = 0	32.3

CC(O)C(=O)[O-].C[N+](C)(C)CCO + CCO
101 kPa
Details	viscosity [mPa·s]
293.15 K, x2 = 0.2996	225.4
293.15 K, x2 = 0.7013	17.75
293.15 K, x2 = 0.7987	8.579
298.15 K, x2 = 0.7987	7.357
303.15 K, x2 = 0.601	25.96
303.15 K, x2 = 0.8996	2.853
308.15 K, x2 = 0.2011	144.8
318.15 K, x2 = 0	158.7
318.15 K, x2 = 0.601	15.05
323.15 K, x2 = 0.1039	91.6
323.15 K, x2 = 0.5003	20.51
323.15 K, x2 = 0.7987	3.792
328.15 K, x2 = 0.1039	72.67
328.15 K, x2 = 0.601	11.1
328.15 K, x2 = 0.7987	3.387
333.15 K, x2 = 0.1039	58.6
333.15 K, x2 = 0.601	9.667
338.15 K, x2 = 0.3999	19.08

CC[n+]1ccn(C)c1.F[B-](F)(F)F + CC[n+]1ccn(C)c1.O=S(=O)([N-]S(=O)(=O)C(F)(F)F)C(F)(F)F
100 kPa, x2 = 0
Details	electrical conductivity [S/m]	viscosity [mPa·s]
243.15 K	0.026	–
248.15 K	0.043	–
253.15 K	0.066	308
258.15 K	0.096	–
263.15 K	0.135	152
268.15 K	0.184	–
273.15 K	0.243	85.2
278.15 K	0.313	–
283.15 K	0.395	52.4
288.15 K	0.488	–
293.15 K	0.594	34.6
298.15 K	0.712	–
303.15 K	–	24.2
313.15 K	–	17.8
323.15 K	–	13.5
333.15 K	–	10.6

CC[n+]1ccn(C)c1.O=S(=O)([N-]S(=O)(=O)C(F)(F)F)C(F)(F)F + O=S(=O)([N-]S(=O)(=O)C(F)(F)F)C(F)(F)F.[Li+]
101 kPa, x1 = 1
Details	electrical conductivity [S/m]	viscosity [mPa·s]
288.15 K	0.611	–
298.15 K	0.883	–
313.15 K	–	19.26
333.15 K	2.18	–
343.15 K	–	9.46

CC[n+]1ccn(C)c1.O=S(=O)([N-]S(=O)(=O)C(F)(F)F)C(F)(F)F + [I-].[Li+]
101 kPa, x1 = 1
Details	electrical conductivity [S/m]
288.15 K	0.611
298.15 K	0.883
333.15 K	2.18

CO + CCCC[N+]1(C)CCCC1.O=S(=O)([N-]S(=O)(=O)C(F)(F)F)C(F)(F)F
Details	viscosity [mPa·s]
293.15 K, 101 kPa, x2 = 0	0.74

CC[n+]1ccn(C)c1.O=S(=O)([N-]S(=O)(=O)C(F)(F)F)C(F)(F)F + O=S(=O)([O-])C(F)(F)F.[Li+]
101 kPa, x1 = 1
Details	electrical conductivity [S/m]
288.15 K	0.611
298.15 K	0.883
333.15 K	2.18

CC[n+]1ccn(C)c1.F[B-](F)(F)F + CC#N
Details	viscosity [mPa·s]
293.15 K, 100 kPa, x2 = 0.1787	25.2
298.15 K, 100 kPa, x2 = 0.8301	1.14
303.15 K, 101 kPa, x1 = 0.0999	0.71
303.15 K, 101 kPa, x1 = 0.2	1.31
303.15 K, 101 kPa, x1 = 0.2977	2.18
303.15 K, 101 kPa, x1 = 0.3999	3.51
303.15 K, 101 kPa, x1 = 0.4999	5.29
303.15 K, 101 kPa, x1 = 0.5991	7.84
303.15 K, 101 kPa, x1 = 0.7013	11
303.15 K, 101 kPa, x1 = 0.8003	15.3
303.15 K, 101 kPa, x1 = 0.9009	21
303.15 K, 101 kPa, x1 = 1	28
313.15 K, 100 kPa, x2 = 0.2803	10.5
313.15 K, 100 kPa, x2 = 0.3682	7.5
313.15 K, 101 kPa, x1 = 0.0999	0.638
313.15 K, 101 kPa, x1 = 0.2	1.15
313.15 K, 101 kPa, x1 = 0.2977	1.89
313.15 K, 101 kPa, x1 = 0.3999	2.95
313.15 K, 101 kPa, x1 = 0.4999	4.34
313.15 K, 101 kPa, x1 = 0.5991	6.21
313.15 K, 101 kPa, x1 = 0.7013	8.64
313.15 K, 101 kPa, x1 = 0.8003	11.7
313.15 K, 101 kPa, x1 = 0.9009	15.6
313.15 K, 101 kPa, x1 = 1	20.4
323.15 K, 100 kPa, x2 = 0	18.6
323.15 K, 100 kPa, x2 = 0.2803	8.36
323.15 K, 100 kPa, x2 = 0.3682	6.1
323.15 K, 100 kPa, x2 = 0.7116	1.6
323.15 K, 101 kPa, x1 = 0.0999	0.575
323.15 K, 101 kPa, x1 = 0.2	1.02
323.15 K, 101 kPa, x1 = 0.2977	1.67
323.15 K, 101 kPa, x1 = 0.3999	2.52
323.15 K, 101 kPa, x1 = 0.4999	3.64
323.15 K, 101 kPa, x1 = 0.5991	5.11
323.15 K, 101 kPa, x1 = 0.7013	6.95
323.15 K, 101 kPa, x1 = 0.8003	9.17
323.15 K, 101 kPa, x1 = 0.9009	12
323.15 K, 101 kPa, x1 = 1	15.3
333.15 K, 100 kPa, x2 = 0.2803	6.82
333.15 K, 100 kPa, x2 = 0.7116	1.41
333.15 K, 101 kPa, x1 = 0.0999	0.522
333.15 K, 101 kPa, x1 = 0.2	0.917
333.15 K, 101 kPa, x1 = 0.2977	1.48
333.15 K, 101 kPa, x1 = 0.3999	2.2
333.15 K, 101 kPa, x1 = 0.4999	3.13
333.15 K, 101 kPa, x1 = 0.5991	4.34
333.15 K, 101 kPa, x1 = 0.7013	5.76
333.15 K, 101 kPa, x1 = 0.8003	7.47
333.15 K, 101 kPa, x1 = 0.9009	9.51
333.15 K, 101 kPa, x1 = 1	12.1
343.15 K, 100 kPa, x2 = 0.3682	4.28
343.15 K, 100 kPa, x2 = 0.7116	1.26
343.15 K, 100 kPa, x2 = 0.8301	0.719

CO + CCCC[n+]1ccn(C)c1.[Cl-]
Details	viscosity [mPa·s]
308.15 K, 101 kPa, x1 = 1	0.49

CCCC[n+]1ccc(C)cc1.N#C[S-] + O
101 kPa
Details	viscosity [mPa·s]
298.15 K, x2 = 0.0564	74.9
298.15 K, x2 = 0.9714	1.58
308.15 K, x2 = 0.6364	10.02
308.15 K, x2 = 0.9714	1.24
318.15 K, x1 = 0.0076	0.73
318.15 K, x2 = 0	33.9
318.15 K, x2 = 0.9714	1.01
328.15 K, x2 = 0.9028	1.71
328.15 K, x2 = 0.957	1.01
328.15 K, x2 = 0.9714	0.84
338.15 K, x2 = 0	17.3
338.15 K, x2 = 0.1655	12.9
338.15 K, x2 = 0.3797	8.38
338.15 K, x2 = 0.4628	7.17
338.15 K, x2 = 0.5669	5.54
338.15 K, x2 = 0.7623	2.94
338.15 K, x2 = 0.9714	0.73
348.15 K, x2 = 0.1655	9.89
348.15 K, x2 = 0.5669	4.45
348.15 K, x2 = 0.957	0.75

CO + C[N+](C)(CCCS(=O)(=O)O)C1CCCCC1.Cc1ccc(S(=O)(=O)[O-])cc1
101 kPa, x2 = 0
Details	viscosity [mPa·s]
303.15 K	0.5044
308.15 K	0.4775
313.15 K	0.4515
318.15 K	0.4244
323.15 K	0.4033
328.15 K	0.3883
